In ChEMBL document CHEMBL5653615 (J Biol Chem, 2013) one finds inhibition data, which are given here for 2 compounds.

Molecules are shown by their SMILES.

Assay [1] has as its target Calcium/calmodulin-dependent protein kinase type 1B (Homo sapiens) (UniProt Q6P2M8). Put plainly: Inhibition of human CAMK1b at 1.82 nM by HotSpot assay relative to control.
For assay [2], the target named is Homeodomain-interacting protein kinase 1 (Homo sapiens) (UniProt Q86Z02). Put plainly: Inhibition of human HIPK1 at 1.82 nM by HotSpot assay relative to control.
The target of assay [3] is T1, Serine/threonine-protein kinase D3 (Homo sapiens) (UniProt O94806).
T1 sequence (whole entry): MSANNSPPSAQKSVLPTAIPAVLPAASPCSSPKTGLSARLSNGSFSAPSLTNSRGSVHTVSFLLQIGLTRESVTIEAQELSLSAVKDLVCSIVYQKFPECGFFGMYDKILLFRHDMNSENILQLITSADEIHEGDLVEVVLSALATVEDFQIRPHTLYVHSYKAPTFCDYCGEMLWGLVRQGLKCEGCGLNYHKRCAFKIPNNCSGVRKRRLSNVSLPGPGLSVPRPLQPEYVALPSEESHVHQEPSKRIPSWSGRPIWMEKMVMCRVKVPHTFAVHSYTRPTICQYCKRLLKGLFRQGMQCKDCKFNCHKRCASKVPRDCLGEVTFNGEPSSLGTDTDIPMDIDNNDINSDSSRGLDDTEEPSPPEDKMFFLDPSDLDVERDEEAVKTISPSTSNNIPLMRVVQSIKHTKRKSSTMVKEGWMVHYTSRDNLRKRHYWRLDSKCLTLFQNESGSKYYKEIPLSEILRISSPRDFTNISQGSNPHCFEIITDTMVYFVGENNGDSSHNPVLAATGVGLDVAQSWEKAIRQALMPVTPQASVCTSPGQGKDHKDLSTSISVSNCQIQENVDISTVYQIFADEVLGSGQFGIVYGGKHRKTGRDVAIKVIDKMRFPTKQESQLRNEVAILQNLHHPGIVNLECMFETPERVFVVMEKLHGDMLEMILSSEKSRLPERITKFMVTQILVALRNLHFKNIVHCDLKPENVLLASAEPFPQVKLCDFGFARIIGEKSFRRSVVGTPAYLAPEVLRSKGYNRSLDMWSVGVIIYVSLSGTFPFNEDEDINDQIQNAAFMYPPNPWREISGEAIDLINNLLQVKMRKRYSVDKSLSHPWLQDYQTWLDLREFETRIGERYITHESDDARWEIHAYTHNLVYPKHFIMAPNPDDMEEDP
Put plainly: Inhibition of human PRKD3 at 1.82 nM by HotSpot assay relative to control.

The target of assay [4] is T2, Serine/threonine-protein kinase TAO1 (Homo sapiens) (UniProt Q7L7X3).
T2 sequence (whole entry): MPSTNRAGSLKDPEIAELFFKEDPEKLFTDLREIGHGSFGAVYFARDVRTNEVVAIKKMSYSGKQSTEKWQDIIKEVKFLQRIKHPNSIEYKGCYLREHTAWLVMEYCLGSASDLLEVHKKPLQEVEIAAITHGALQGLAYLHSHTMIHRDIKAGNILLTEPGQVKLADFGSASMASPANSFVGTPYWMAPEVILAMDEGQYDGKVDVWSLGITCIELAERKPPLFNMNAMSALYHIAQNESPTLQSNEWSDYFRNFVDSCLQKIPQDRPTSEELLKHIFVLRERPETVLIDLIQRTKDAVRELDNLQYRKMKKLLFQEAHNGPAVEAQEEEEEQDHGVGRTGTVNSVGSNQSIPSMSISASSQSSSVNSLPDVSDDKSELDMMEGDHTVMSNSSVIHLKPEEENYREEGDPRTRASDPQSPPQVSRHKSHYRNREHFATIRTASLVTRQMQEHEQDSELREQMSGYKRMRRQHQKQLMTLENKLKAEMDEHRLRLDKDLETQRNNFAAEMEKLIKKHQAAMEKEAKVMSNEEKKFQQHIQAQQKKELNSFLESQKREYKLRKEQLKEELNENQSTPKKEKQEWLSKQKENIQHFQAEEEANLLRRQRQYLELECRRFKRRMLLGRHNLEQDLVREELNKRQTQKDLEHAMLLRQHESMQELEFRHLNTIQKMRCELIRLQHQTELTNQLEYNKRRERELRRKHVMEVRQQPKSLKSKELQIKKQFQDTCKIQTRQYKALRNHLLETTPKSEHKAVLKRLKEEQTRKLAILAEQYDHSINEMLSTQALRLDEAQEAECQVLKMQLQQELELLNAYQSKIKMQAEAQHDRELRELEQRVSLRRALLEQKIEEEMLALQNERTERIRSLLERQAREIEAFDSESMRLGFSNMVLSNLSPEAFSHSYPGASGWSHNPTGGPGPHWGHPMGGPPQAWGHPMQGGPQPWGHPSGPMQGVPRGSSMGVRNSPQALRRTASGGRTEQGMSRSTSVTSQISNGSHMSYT
Put plainly: Inhibition of human TAOK1 at 18.6 nM by HotSpot assay relative to control.

Assay [5] deals with Serine/threonine-protein kinase 25 (Homo sapiens) (UniProt O00506). Put plainly: Inhibition of human YSK1 at 18.6 nM by HotSpot assay relative to control.
The target in assay [6] is Insulin receptor-related protein (Homo sapiens) (UniProt P14616). Put plainly: Inhibition of human IRR at 18.6 nM by HotSpot assay relative to control.
Insulin receptor-related protein (Homo sapiens), sequence (P14616 27-742 limits assumed): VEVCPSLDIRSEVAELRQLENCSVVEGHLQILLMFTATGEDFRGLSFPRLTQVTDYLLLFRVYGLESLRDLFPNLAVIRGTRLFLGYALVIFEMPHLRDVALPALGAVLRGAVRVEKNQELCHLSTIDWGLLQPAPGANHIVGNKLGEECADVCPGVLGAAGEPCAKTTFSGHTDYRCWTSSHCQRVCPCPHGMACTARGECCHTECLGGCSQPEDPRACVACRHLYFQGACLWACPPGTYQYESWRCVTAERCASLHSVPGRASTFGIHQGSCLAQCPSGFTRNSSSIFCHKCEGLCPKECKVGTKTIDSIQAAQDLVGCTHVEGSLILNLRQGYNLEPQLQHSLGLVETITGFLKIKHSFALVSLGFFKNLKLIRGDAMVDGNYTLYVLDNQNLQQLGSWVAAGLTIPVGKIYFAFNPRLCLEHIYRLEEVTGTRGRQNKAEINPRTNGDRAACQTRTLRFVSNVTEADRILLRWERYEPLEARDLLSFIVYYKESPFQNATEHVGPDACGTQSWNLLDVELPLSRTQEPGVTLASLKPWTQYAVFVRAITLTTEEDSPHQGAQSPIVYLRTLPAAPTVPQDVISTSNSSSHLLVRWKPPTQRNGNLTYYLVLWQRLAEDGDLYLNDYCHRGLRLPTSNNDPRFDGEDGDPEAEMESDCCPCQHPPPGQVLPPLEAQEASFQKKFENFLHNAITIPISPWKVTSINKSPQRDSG
Insulin receptor-related protein (Homo sapiens), sequence (P14616 747-1297 limits assumed): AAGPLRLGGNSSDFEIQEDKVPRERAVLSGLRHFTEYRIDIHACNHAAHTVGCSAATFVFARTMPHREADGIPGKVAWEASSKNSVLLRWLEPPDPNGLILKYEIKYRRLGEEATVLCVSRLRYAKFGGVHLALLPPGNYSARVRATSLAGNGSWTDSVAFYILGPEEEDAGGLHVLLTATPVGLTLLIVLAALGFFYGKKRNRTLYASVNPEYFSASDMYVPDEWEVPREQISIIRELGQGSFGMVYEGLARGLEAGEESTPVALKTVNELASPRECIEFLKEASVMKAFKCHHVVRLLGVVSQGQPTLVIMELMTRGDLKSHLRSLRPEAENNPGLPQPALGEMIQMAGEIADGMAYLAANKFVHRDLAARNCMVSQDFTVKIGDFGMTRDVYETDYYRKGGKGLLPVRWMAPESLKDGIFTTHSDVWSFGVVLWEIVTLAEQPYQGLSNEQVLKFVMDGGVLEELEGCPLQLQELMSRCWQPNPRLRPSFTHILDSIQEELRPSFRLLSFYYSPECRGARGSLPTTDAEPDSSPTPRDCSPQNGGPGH

Serine/threonine-protein kinase 25 (Homo sapiens), sequence (O00506 whole entry, looked up): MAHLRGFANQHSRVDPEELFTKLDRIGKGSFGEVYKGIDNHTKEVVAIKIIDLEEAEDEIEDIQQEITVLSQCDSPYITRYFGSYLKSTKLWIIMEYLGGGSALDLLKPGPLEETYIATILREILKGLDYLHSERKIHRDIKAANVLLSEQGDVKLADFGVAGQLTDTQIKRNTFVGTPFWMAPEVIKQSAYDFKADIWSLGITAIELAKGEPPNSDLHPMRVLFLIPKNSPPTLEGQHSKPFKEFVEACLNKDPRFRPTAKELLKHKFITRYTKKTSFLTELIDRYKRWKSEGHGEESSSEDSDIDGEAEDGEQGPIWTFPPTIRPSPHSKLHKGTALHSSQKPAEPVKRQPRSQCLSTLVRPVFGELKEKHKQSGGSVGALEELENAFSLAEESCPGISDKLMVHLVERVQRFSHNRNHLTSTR
Calcium/calmodulin-dependent protein kinase type 1B (Homo sapiens), sequence (Q6P2M8 whole entry): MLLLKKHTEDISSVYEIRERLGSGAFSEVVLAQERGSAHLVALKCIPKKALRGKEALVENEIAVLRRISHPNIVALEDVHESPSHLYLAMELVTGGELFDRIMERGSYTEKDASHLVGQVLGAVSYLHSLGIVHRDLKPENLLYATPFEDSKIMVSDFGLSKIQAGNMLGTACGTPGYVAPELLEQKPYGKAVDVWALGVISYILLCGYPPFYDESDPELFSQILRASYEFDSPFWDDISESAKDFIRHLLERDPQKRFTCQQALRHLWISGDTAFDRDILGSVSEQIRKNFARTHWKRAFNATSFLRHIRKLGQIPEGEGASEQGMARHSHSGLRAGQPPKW
Homeodomain-interacting protein kinase 1 (Homo sapiens), sequence (Q86Z02 whole entry, looked up): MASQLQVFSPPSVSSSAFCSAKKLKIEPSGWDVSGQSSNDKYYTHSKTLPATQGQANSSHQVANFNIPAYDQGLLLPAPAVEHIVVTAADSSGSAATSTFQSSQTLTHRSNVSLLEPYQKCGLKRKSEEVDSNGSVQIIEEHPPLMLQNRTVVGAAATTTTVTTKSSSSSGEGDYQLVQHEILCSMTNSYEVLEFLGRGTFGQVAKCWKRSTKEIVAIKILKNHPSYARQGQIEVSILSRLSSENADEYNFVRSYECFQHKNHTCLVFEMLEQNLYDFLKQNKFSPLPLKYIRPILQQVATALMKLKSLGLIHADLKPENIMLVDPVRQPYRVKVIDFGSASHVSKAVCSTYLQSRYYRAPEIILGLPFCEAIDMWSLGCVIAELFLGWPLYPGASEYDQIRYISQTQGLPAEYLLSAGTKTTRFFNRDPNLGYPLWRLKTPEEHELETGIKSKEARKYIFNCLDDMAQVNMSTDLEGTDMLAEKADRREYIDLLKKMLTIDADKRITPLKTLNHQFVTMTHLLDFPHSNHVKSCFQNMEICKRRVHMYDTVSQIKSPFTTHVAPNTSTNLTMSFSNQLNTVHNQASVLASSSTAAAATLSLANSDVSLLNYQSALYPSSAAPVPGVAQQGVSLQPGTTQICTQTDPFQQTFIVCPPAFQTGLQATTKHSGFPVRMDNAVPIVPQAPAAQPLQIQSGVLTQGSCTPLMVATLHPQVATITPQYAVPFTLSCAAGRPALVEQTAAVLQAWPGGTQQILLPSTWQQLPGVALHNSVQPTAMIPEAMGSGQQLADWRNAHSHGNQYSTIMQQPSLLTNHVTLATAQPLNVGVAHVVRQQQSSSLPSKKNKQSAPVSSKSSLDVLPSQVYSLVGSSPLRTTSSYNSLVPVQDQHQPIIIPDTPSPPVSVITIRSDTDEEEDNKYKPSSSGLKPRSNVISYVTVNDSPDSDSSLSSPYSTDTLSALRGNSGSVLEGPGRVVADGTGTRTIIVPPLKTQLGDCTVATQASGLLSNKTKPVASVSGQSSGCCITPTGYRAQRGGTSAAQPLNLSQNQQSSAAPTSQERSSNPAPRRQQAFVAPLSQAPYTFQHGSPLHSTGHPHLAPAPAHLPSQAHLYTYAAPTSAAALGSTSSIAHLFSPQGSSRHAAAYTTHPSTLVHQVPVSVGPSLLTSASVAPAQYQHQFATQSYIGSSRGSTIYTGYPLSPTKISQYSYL

As to `C[C@@]1(C(=O)Nc2ccc(F)nc2)CCCN1c1nc(Nc2cc(C3CC3)n[nH]2)c2cccn2n1`, the inhibition was -2.9% in assay [1], -6.64% in assay [2] and 2.81% in assay [3].
`C[C@]1(O)C[C@@H](c2nc(-c3ccc4ccc(-c5ccccc5)nc4c3)c3c(N)nccn32)C1`: the inhibition was 0.77% in assay [4], -3.04% in assay [5] and 100% in assay [6].

In general, inhibition refers to the relative decrease from the control value, in per cent.
